From paper PMC8957246, “Synthesis and diverse biological activity profile of triethylammonium isatin-3-hydrazones” (ADMET & DMPK, 2022)
Values after ≈ are worked out from the molar mass of the structure shown. Counter-ions that a name gives are not always drawn. Marks after values point to notes of the source that are not given here.

Legend:
Micrococcus luteus B-109 = assay: Bactericidal activity, agar diffusion, M. luteus; type: cell-based
Excerpt: (§1) Plant pathogenic bacterial strains Micrococcus luteus B-109, Pectobacterium atrosepticum 1043, Pectobacterium carotovorum subsp. carotovorum MI, Pseudomonas fluorescens EL-2.1, and Xanthomonas campestris B-610 and fungal strain Fusarium oxysporum IBPPM 543 were obtained from the specialized scientific culture collection of IBPPM RAS (WFCC no. 975, WDCM no. 1021) (CM IBPPM). Pathogenic fungus Phytophthora cactorum VKM F-985 provided by the All-Russian Collection of Microorganisms (VKM) and deposited at A.E. Favorsky Irkutsk Institute of Chemistry, SB RAS, was also used as test organism. Bacteria M. luteus, P. carotovorum subsp. carotovorum, P. atrosepticum, and Ps. fluorescens were grown in meat-peptone medium (BP), and X. campestris was grown in the medium with glucose, yeast extract, and calcium carbonate (GYCa). Solid media contained Bacto agar (18 g/L); pH was adjusted to 7.2-7.4. All bacterial cultures were grown at 28°C. The mycelial cultures of F. oxysporum and P. cactorum were grown on a glucose-peptone-yeast (GPY) nutrient medium at 27 °C. For inoculum preparation, both fungal strains were initially grown on the agar GPY in Petri dishes and then transferred into the seed medium by punching out 5 mm of the agar plate culture with a self-designed cutter.
(§2) Antibacterial and antifungal activities of the compounds were explored using the agar diffusion method and the technique of a phytopathogen radial growth inhibition. Method of diffusion in agar (measuring the diameter of growth inhibition zones) was used for determining the bactericidal activity. The 6-mm wells were made in ager medium (GYCa for Xanthomonas campestris or BP for other bacteria). Bacterial suspensions were distributed over the agar surface, and the tested compound's solution (150 μl) was added to each well. The width of growth inhibition zones around the wells was determined after incubation for 36-40 h.
(§3) The solutions of tested compounds were prepared with a concentration of 2 mmol/l (stock solution). For comparison, test compounds were also commonly applied disinfecting agents and antibiotics.

[1] = system: Pectobacterium atrosepticum 1043; assay: Bactericidal activity, agar diffusion, P. atrosepticum; type: cell-based
Excerpt: as §1, §2, §3

[2] = system: Pectobacterium carotovorum subsp. carotovorum MI; assay: Bactericidal activity, agar diffusion, P. carotovorum; type: cell-based
Excerpt: as §1, §2, §3

[3] = system: Pseudomonas fluorescens EL-2.1; assay: Bactericidal activity, agar diffusion, Ps. fluorescens; type: cell-based
Excerpt: as §1, §2, §3

[4] = system: Xanthomonas campestris B-610; assay: Bactericidal activity, agar diffusion, X. campestris; type: cell-based
Excerpt: as §1, §2, §3

[5] = system: Staphylococcus aureus ATCC 6538P FDA 209P; assay: Antimicrobial activity, serial dilution (MIC/MBC), Sa; type: cell-based; settings: Staphylococcus aureus
Protocol: (§4) The antimicrobial activity of the test compounds was determined by the serial dilution technique in Muller Hinton Broth 2 and in Sabouradu broth for fungi. The cultures used for testing included Gram-positive bacteria: Staphylococcus aureus ATCC 6538P FDA 209P, Bacillus cereus ATCC 10702 NCTC 8035, Enterococcus faecalis ATCC 29212; Gram-negative bacteria: Escherichia coli ATCC 25922, Pseudomonas aeruginosa ATCC 9027, and fungi: Trichophyton mentagrophytes var. gypseum 1773, and Candida albicans ATCC 10231; methicillin-resistant strains of S. aureus (MRSA) was obtained from hospital patients with chronic tonsillitis in the Republican Clinical Hospital (Kazan, Russia). The bacterial load was 3.0 × 10^5 cfu/ml. The fungi load was 2.0 × 10^3 cfu/ml. The results were recorded every 24 h for 5-7 days. Cultures were incubated at 37 °C. The experiment was repeated three times. […] The minimum inhibitory concentration (MIC) was defined as the minimum concentration of a compound that inhibits the growth of the corresponding test microorganism. The growth of bacteria, as well as the absence of the growth due to the bacteriostatic action of compounds, were recorded.
(§5) Synthesized compounds were further evaluated for antimicrobial activity against test microorganisms: Staphylococcus aureus ATCC 209p (Sa), Bacillus cereus ATCC 8035 (Bc), Escherichia coli CDC F-50 (Ec), Enterococcus faecalis (Ef), Pseudomonas aeruginosa ATCC 9027, Aspergillus niger BKMF-1119, Trichophyton mentagrophytes var. gypseum 1773, and Candida albicans 855-653 including methicillin-resistant strains of S. aureus (MRSA 1 and MRSA 2). The minimum inhibitory (MIC) and minimum bactericidal (MBC) concentrations of ammonium salts were determined against these pathogens (Table 1). Due to the lack of activity of compounds 3a-g against Gram-negative bacterial strains and some fungi, the corresponding data are not shown.

[6] = system: Bacillus cereus ATCC 10702 NCTC 8035; assay: Antimicrobial activity, serial dilution (MIC/MBC), Bc; type: cell-based; settings: Bacillus cereus
Protocol: as §4, §5

[7] = system: Enterococcus faecalis ATCC 29212; assay: Antimicrobial activity, serial dilution (MIC/MBC), Ef; type: cell-based; settings: ATCC29212
Protocol: as §4, §5

[8] = system: methicillin-resistant strains of S. aureus (MRSA-1); assay: Antimicrobial activity, serial dilution (MIC/MBC), MRSA-1; type: cell-based; settings: Staphylococcus aureus
Protocol: as §4, §5

[9] = system: methicillin-resistant strains of S. aureus (MRSA-2); assay: Antimicrobial activity, serial dilution (MIC/MBC), MRSA-2; type: cell-based; settings: Staphylococcus aureus
Protocol: as §4, §5

[10] = system: platelets (ADP-induced aggregation); assay: Platelet aggregation (Born method), ADP-induced; type: cell-based; settings: Homo sapiens, ADP 20 μg/mL, final concentration 2×10^–3 mol/L, median (25-75 percentiles), read-out: Platelets aggregation, % of control, ADP
Protocol: (§6) The in vitro experiments were performed using the blood of healthy male donors aged 18-24 years (total 54 donors). The study was approved by the Ethics Committee of Federal State Budgetary Educational Institution of Higher Education at the Bashkir State Medical University of the Ministry of Health of Russian Federation (No.2 dated 17.10.2012). Informed consent was obtained from all participants before blood sampling. The blood was collected from the cubital vein using the system of vacuum blood collection BD Vacutainer® (Becton, Dickinson and Company, USA). A 3.8 % sodium citrate solution in a 9:1 ratio was used as a venous blood stabiliser. The study of the effect on platelet aggregation was performed using the Born method using the aggregometer «AT-02» (SPC Medtech, Russia). The assessment of antiplatelet activity of the studied compounds and reference preparations was started with the final concentration of 2×10^–3 mol/L. Adenosine diphosphate (ADP; 20 μg/mL) and collagen (5 mg/mL) manufactured by Tehnologia-Standart Company, Russia, were used as inducers of aggregation. The study on the anticoagulant activity was performed by standard recognised clotting tests using the optical two-channel automatic analyser of blood coagulation Solar CGL 2110 (CJSC SOLAR, Belarus). The following parameters were studied: activated partial thromboplastin time (APTT), prothrombin time (PT) and fibrinogen concentrations according to the Clauss method. The determination of anticoagulant activity of the studied compounds and reference preparation was performed in a concentration of 5×10^–4 g/mL using the reagents manufactured by Tehnologia-Standart Company (Barnaul, Russia). The results of the study were processed using the statistical package Statistica 10.0 (StatSoft Inc, USA). The Shapiro–Wilk’s test was used to check the normality of actual data distribution. The form of distribution of the data obtained differed from the normal one; therefore, non-parametric methods were used for further analysis. The data were presented as medians and 25 and 75 percentiles. Analysis of variance was conducted using Kruskal–Wallis test. A p value of 0.05 was considered statistically significant.

[11] = system: platelets (collagen-induced aggregation); assay: Platelet aggregation (Born method), collagen-induced; type: cell-based; settings: Homo sapiens, collagen 5 mg/mL, final concentration 2×10^–3 mol/L, median (25-75 percentiles), read-out: Platelets aggregation, % of control, Collagen
Protocol: as §6

[12] = system: activated partial thromboplastin time (intrinsic coagulation pathway); assay: Anticoagulant activity, clotting test APTT; design: species or system human; settings: concentration 5×10^–4 g/mL; median (25-75 percentiles)
Protocol: as §6

[13] = system: Fusarium oxysporum IBPPM 543; assay: Fungicidal activity, radial growth inhibition, F. oxysporum; type: cell-based; settings: for Inhibition value, I (%): C 10 μg/mL
Excerpt: as §1
(§7) For the fungicidal activity analysis, radial growth (colony diameters) of the fungi on a solid medium in the absence and in the presence of the compounds 3a,c-g solutions at various concentrations were compared. The method consisted of the following: sterile, melted and then cooled to about 60°C GPY agar medium (20.0 ml) was mixed with the precisely measured volumes of the solutions under question, and poured into a sterile Petri dish (90 mm i.d.). After solidification of GPY agar, the media were inoculated by the fungus using 10-day-old cultures of F. oxysporum or P. cactorum. The inoculation was done by transferring a 5-mm (i.d.) GPY-agar block covered with mycelium to the center of the Petri dish followed by incubation in a thermostat at 27°C. The fungicidal effect was scored by the size of mycelium colony on a Petri dish compared to the control without fungicidal admixtures to GPY agar. Each treatment was performed in at least four replicates in two independent experiments. The observation period ended when the control Petri dish was filled with mycelium (usually after 12 days). The inhibition of the phytopathogen colony growth by the compounds 3a,c-g or fludioxonil solutions was calculated as a percentage by which the mycelium radial propagation was decreased compared to the unaffected control, the latter was taken as 100 % of growth (or zero percent of inhibition). The EC50 value was calculated as the compound concentration at which the radial growth of the fungus colony was decreased by 50 % relative to the non-fungicidal control, according to the formula EC50 = 50C/I based on the approach developed e.g., in [34, 35].
as §3

[14] = system: Phytophthora cactorum VKM F-985; assay: Fungicidal activity, radial growth inhibition, P. cactorum; type: cell-based; settings: for Inhibition value, I (%): C 10 μg/mL
Excerpt: as §1, §7, §3

Compound: CCc1cccc2c1N(Cc1cc(C(C)(C)C)c(O)c(C(C)(C)C)c1)C(=O)/C2=N\NC(=O)C[N+](CC)(CC)CC (as salt: bromide) [Compound 3c, 2-(2-(1-(3,5-Di-tert-butyl-4-hydroxybenzyl)-7-ethyl-2-oxoindolin-3-ylidene)hydrazinyl)-N,N,N-triethyl-2-oxoethanammonium bromide]
- melting point: 163 °C

Compound: N=C(NCCCCCCNC(=N)NC(=N)Nc1ccc(Cl)cc1)NC(=N)Nc1ccc(Cl)cc1 [Chlorohexidin, reference compound]
- width of the inhibition zone (Micrococcus luteus B-109; 500 μg/mL): 5 mm
- width of the inhibition zone ([1]; 500 μg/mL): 4 mm
- width of the inhibition zone ([2]; 500 μg/mL): 5 mm
- width of the inhibition zone ([3]; 500 μg/mL): 4 mm
- width of the inhibition zone ([4]; 500 μg/mL): 5 mm

Compound: CC[N+](CC)(CC)CC(=O)N/N=C1\C(=O)N(Cc2cc(C(C)(C)C)c(O)c(C(C)(C)C)c2)c2cccc(Br)c21 (as salt: bromide) [Compound 3e, 2-(2-(1-(3,5-Di-tert-butyl-4-hydroxybenzyl)-4-bromo-2-oxoindolin-3-ylidene)hydrazinyl)-N,N,N-triethyl-2-oxoethanammonium bromide]
- melting point: 194 °C

Compound: CCn1cc(C(=O)O)c(=O)c2cc(F)c(N3CCNCC3)cc21 [Norfloxacin, reference compound]
- MIC [5]: 7.5 ± 0.5 µM (≈ 2.4 µg/mL)
- MBC ([5]; read-out: MBC (converted)): 7.5 ± 0.6 µM (≈ 2.4 µg/mL)
- MBC [6]: 24.4 ± 2.1 µM (≈ 7.79 µg/mL)
- MIC ([6]; read-out: MIC): 24.4 ± 2.1 µM (≈ 7.79 µg/mL)
- MBC [7]: 7.5 ± 0.6 µM (≈ 2.4 µg/mL)
- MIC [7]: 7.5 ± 0.5 µM (≈ 2.4 µg/mL)
- MIC [8]: 391 ± 30 µM (≈ 125 µg/mL)
- MIC [9]: 30 ± 2.6 µM (≈ 9.58 µg/mL)
- zone of inhibition at 500 µg/mL (Micrococcus luteus B-109; Micrococcus luteus, B109, 500 μg/mL, read-out: width of the inhibition zone): 7 mm
- zone of inhibition at 500 µg/mL ([1]; Pectobacterium atrosepticum, 1043, 500 μg/mL, read-out: width of the inhibition zone): 7 mm
- zone of inhibition at 500 µg/mL ([2]; Pectobacterium carotovorum, 500 μg/mL, read-out: width of the inhibition zone): 8 mm
- zone of inhibition at 500 µg/mL ([3]; Pseudomonas fluorescens, EL2.1, 500 μg/mL, read-out: width of the inhibition zone): 8 mm
- zone of inhibition at 500 µg/mL ([4]; Xanthomonas campestris, B610, read-out: width of the inhibition zone): 7 mm

Compound: CC(=O)Oc1ccccc1C(=O)O [Acetylsalicylic acid, reference compound]
- inhibition at 2000 µM [10]: 13.7%
- inhibition at 2000 µM [11]: 14.7%

Compound: [Na+].[O-]Cl [sodium hypochlorite, reference compound]
- width of the inhibition zone (Micrococcus luteus B-109; 1000 μg/mL): 2.5 mm
- width of the inhibition zone ([1]; 1000 μg/mL): 4 mm
- width of the inhibition zone ([2]; 1000 μg/mL): 3 mm
- width of the inhibition zone ([3]; 1000 μg/mL): 4 mm
- width of the inhibition zone ([4]; 1000 μg/mL): 4 mm

Compound: CC[N+](CC)(CC)CC(=O)N/N=C1\C(=O)N(Cc2cc(C(C)(C)C)c(O)c(C(C)(C)C)c2)c2ccccc21 (as salt: bromide) [Compound 3a, 2-(2-(1-(3,5-Di-tert-butyl-4-hydroxybenzyl)-2-oxoindolin-3-ylidene)hydrazinyl)-N,N,N-triethyl-2-oxoethanammonium bromide]
- melting point: 212 °C

Compound: Heparin sodium [reference compound]
- APTT, % of control [12]: +20.3 (19.7-21.4) ^** % of control

Compound: N#Cc1c[nH]cc1-c1cccc2c1OC(F)(F)O2 [Fludioxonil, reference compound]
- Inhibition value, I (%) ([13]; age of the fungus 3 days): 38%
- Inhibition value, I (%) ([13]; age of the fungus 5 days): 23%
- Inhibition value, I (%) ([13]; age of the fungus 7 days): 6%
- Inhibition value, I (%) ([13]; age of the fungus 9 days): 4%
- EC50 ([13]; Fusarium oxysporum, IBPPM543, 168 h, read-out: EC50, μg/mL at day 7): 83.3 µg/mL (≈ 336 µM)
- Inhibition value, I (%) ([14]; age of the fungus 3 days): 46%
- Inhibition value, I (%) ([14]; age of the fungus 5 days): 38%
- Inhibition value, I (%) ([14]; age of the fungus 7 days): 18%
- Inhibition value, I (%) ([14]; age of the fungus 9 days): 12%
- Inhibition value, I (%) ([14]; age of the fungus 12 days): 9%
- EC50 ([14]; Phytophthora cactorum, 168 h, read-out: EC50, μg/mL at day 7): 27.8 µg/mL (≈ 112 µM)
